Eight compounds from patent publication US20220402950A1, “SUBSTITUTED BENZIMIDAZOLES AS PAD4 INHIBITORS” (BRISTOL-MYERS SQUIBB COMPANY, priority 2018, published 2022) can be followed below.

Where two headings read alike, the source gives them in different places.

The target of this test is human PAD4 (hPAD4) (Homo sapiens, UniProt Q9UM07). The test is described as follows: RFMS Human PAD4 Functional Assay. The class given is biochemical. The following applies: 5 nM hPAD4, 250 μM BAEE. In outline: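 RapidFire ESI-MS quantification, normalised to a modified-citrulline internal standard, after phenyl glyoxal (final 4 mM) derivatisation of the TCA-quenched reaction. The enzyme (10 nM) sat 30 min with compound (up to 50 μM final) before 500 μM BAEE (as added) started a 90 min, 37 °C reaction. Buffer: HEPES pH 7.5, 50 μM calcium, 5 μM TPEN.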
human PAD4 (hPAD4), sequence (Q9UM07 whole entry): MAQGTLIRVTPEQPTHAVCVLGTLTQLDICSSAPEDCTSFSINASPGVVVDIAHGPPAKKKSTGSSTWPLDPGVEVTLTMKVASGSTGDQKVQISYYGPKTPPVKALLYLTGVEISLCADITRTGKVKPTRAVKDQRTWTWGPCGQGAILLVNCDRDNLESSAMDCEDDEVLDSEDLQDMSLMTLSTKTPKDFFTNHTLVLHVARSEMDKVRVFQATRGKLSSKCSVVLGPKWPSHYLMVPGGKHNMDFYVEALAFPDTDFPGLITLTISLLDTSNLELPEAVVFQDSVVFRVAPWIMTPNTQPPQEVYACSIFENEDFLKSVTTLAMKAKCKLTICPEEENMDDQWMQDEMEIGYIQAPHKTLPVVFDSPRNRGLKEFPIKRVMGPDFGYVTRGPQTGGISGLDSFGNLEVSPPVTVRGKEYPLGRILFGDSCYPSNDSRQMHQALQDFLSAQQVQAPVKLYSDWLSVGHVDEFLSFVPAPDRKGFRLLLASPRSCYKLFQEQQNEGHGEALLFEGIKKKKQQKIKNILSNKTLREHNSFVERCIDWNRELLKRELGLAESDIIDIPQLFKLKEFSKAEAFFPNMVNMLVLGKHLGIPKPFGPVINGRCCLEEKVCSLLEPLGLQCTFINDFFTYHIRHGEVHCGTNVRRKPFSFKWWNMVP

[1] abbreviates: hPAD4 RFMS IC50, human PAD4, rapid-fire mass spectrum (RFMS) assay.
Setting [2] is: human PAD4, rapid-fire mass spectrum (RFMS) assay, read-out: hPAD4 RFMS IC50.

What is called IC50 is the point on the concentration scale where inhibition reaches its midpoint. Under setting [1], `COc1cc(C(=O)N2C[C@H]3CC[C@@H]2[C@@H]3N)cc2nc(-c3cc4cccc(-c5ccc6c(c5)C(F)(F)C(=O)N6)c4n3CC3CC3)n(C)c12` [Example 190, 5-(2-(5-((1R,4R,7R)-7-amino-2-azabicyclo[2.2.1]heptane-2-carbonyl)-7-methoxy-1-methyl-1H-benzo[d]imidazol-2-yl)-1-(cyclopropylmethyl)-1H-indol-7-yl)-3,3-difluoroindolin-2-one] came in with an IC50 of 85 nM.

The compound `COc1cc(C(=O)N2C[C@H]3CC[C@@H]2[C@@H]3N)cc2nc(-c3cc4cccc(-c5ccccc5C#N)c4n3CC3CC3C)n(C)c12` (stereo partly drawn) [Example 155, 2-(2-(5-((1R,4R,7R)-7-amino-2-azabicyclo[2.2.1]heptane-2-carbonyl)-7-methoxy-1-methyl-1H-benzo[d]imidazol-2-yl)-1-((2-methylcyclopropyl)meth-yl)-1H-indol-7-yl)benzonitrile] came in with an IC50 under setting [1] of 171 nM.

`COc1cc(C(=O)N2C[C@H]3CC[C@@H]2[C@@H]3N)cc2nc(-c3cc4cccc(C5CN(C)C5)c4n3CC3CC3)n(C)c12` [Example 22, (1R,4R,7R)-2-{2-[1-(cyclopropylmethyl)-7-(1-methylazetidin-3-yl)-1H-indol-2-yl]-7-methoxy-1-methyl-1H-1,3-benzodiazole-5-carbonyl}-2-azabicyclo[2.2.1]heptan-7-amine] gave an IC50 under setting [1] of 42 nM.

On to `COc1cc(C(=O)N2C[C@H]3CC[C@@H]2[C@@H]3N)cc2nc(-c3cc4cccc(-c5ccccc5O)c4n3CC3CC3)n(C)c12` [Example 87, 2-(2-{5-[(1R,4R,7R)-7-amino-2-azabicyclo[2.2.1]heptane-2-carbonyl]-7-methoxy-1-methyl-1H-1,3-benzodiazol-2-yl}-1-(cyclopropylmethyl)-1H-indol-7-yl)phenol], for which the IC50 under setting [2] is 111 nM.

As to `COc1cc(C(=O)N2CC3CCC2[C@@H]3N)cc2nc(-c3cc4cccc(Nc5cc(C)nc(C)c5)c4n3CC3CC3)n(C)c12` (stereo partly drawn) [Example 161, ((7R)-7-amino-2-azabicyclo[2.2.1]heptan-2-yl)(2-(1-(cyclopropylmethyl)-7-((2,6-dimethylpyridin-4-yl)amino)-1H-indol-2-yl)-7-methoxy-1-methyl-1H-benzo[d]imidazol-5-yl)methanone], under setting [1], the IC50 was 103 nM.

For the compound `COc1cc(C(=O)N2C[C@H]3CC[C@@H]2[C@@H]3N)cc2nc(-c3cc4cccc(C5CN(C(=O)CN)C5)c4n3CC3CC3)n(C)c12` [Example 65, 2-amino-1-[3-(2-{5-[(1R,4R,7R)-7-amino-2-azabicyclo[2.2.1]heptane-2-carbonyl]-7-methoxy-1-methyl-1H-1,3-benzodiazol-2-yl}-1-(cyclopropylmethyl)-1H-indol-7-yl)azetidin-1-yl]ethan-1-one], the IC50 under setting [2] was 24 nM.

Under setting [1], `COc1cc(C(=O)N2C[C@H](N)C[C@@H](F)C2)cc2nc(-c3cc4cccc(C5CN(C(C)=O)C5)c4n3CC3CC3)n(Cc3cnn(C)c3)c12` [Example 212, 1-(3-(2-(5-((3R,5R)-3-amino-5-fluoropiperidine-1-carbonyl)-7-methoxy-1-((1-methyl-1H-pryazol-4-yl)methyl)-1H-benzo[d]imidazol-2-yl)-1-(cyclopropylmethyl)-1H-indol-7-yl)azetidin-1-yl)ethane-1-one] gave an IC50 of 35 nM.

`COc1cc(C(=O)N2CC3CC[C@@H]2[C@@H]3N)cc2nc(-c3cc4cccc(-c5ccc6c(c5)C(C)(C)OC(=O)N6)c4n3CC3CC3)n(C)c12` (stereo in doubt) [Example 142, 6-(2-(5-((1R,4S)-7-amino-2-azabicyclo[2.2.1]heptane-2-carbonyl)-7-methoxy-1-methyl-1H-benzo[d]imidazol-2-yl)-1-(cyclopropylmethyl)-1H-indol-7-yl)-4,4-dimethyl-1,4-dihydro-2H-benzo[d][1,3]oxazin-2-one] had an IC50 under setting [1] of 180 nM.
